What was measured:
[1] = biological target: T1, Tyrosine-protein kinase JAK3 (Homo sapiens) (UniProt P52333); details: at 10 µM
T1 sequence (whole entry): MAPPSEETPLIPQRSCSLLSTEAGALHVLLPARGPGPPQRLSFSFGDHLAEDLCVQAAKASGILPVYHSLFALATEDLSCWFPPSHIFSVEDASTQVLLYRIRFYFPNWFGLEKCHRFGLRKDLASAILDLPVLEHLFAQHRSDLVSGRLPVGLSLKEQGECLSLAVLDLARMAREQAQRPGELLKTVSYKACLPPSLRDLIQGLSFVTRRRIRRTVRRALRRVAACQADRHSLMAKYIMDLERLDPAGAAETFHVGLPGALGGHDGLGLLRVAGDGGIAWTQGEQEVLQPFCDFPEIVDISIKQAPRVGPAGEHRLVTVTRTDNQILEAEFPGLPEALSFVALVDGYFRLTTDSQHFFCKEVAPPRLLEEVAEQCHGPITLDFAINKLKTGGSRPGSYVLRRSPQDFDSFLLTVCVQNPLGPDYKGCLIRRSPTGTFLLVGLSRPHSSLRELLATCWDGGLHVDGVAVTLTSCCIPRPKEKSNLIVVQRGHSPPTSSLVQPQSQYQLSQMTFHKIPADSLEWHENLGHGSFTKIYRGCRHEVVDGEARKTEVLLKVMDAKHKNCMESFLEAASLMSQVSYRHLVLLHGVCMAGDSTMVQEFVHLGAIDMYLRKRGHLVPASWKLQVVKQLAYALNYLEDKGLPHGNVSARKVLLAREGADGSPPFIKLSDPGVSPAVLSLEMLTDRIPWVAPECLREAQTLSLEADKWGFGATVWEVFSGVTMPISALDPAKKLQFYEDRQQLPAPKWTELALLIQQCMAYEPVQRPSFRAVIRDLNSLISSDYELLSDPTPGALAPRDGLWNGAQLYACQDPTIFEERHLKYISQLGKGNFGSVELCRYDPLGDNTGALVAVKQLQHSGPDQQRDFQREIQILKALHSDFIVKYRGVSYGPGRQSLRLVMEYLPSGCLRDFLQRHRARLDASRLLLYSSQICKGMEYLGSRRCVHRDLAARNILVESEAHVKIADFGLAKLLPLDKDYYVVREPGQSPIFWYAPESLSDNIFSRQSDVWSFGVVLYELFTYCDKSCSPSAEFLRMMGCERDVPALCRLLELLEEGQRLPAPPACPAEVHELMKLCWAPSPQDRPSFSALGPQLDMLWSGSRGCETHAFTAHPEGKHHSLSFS
Description: Inhibition of JAK3 (unknown origin) at 10 uM

[2] = biological target: Tyrosine-protein kinase JAK2 (Homo sapiens) (UniProt O60674); details: at 10 µM
Tyrosine-protein kinase JAK2 (Homo sapiens), sequence (O60674 whole entry): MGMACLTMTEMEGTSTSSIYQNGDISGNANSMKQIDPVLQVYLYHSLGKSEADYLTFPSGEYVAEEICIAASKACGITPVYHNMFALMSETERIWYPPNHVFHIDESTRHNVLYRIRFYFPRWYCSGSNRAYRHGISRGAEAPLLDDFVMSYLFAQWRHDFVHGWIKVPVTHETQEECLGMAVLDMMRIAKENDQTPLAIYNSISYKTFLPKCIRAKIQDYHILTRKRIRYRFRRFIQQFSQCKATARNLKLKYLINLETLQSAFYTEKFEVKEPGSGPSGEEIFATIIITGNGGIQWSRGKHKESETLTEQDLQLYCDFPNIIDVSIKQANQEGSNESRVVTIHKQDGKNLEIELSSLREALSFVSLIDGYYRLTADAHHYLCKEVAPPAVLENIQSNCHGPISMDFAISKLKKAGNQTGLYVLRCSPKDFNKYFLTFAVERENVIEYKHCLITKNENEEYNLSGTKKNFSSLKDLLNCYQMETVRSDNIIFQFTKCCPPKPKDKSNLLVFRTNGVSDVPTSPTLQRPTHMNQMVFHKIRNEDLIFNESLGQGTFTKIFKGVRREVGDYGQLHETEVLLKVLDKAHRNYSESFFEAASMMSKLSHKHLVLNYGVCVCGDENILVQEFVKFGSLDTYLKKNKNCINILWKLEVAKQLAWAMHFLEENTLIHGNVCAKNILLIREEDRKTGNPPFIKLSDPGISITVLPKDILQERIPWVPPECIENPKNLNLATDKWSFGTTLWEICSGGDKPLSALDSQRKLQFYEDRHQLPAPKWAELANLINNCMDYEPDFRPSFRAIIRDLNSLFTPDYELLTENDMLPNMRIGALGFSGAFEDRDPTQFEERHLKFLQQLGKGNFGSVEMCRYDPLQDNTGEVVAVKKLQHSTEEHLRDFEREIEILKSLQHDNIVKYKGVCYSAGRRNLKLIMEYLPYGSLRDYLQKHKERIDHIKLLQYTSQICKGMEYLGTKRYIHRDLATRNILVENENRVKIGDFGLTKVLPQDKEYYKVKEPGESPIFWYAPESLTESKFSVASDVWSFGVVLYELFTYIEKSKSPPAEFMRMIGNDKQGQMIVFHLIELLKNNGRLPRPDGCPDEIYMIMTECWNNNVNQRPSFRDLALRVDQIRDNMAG
Description: Inhibition of JAK2 (unknown origin) at 10 uM

SMILES	inhibition [1] [%]	inhibition [2] [%]
NC(=O)c1cc(-c2cccc3[nH]ncc23)cc2c(C#CCO)n[nH]c12	24.9	2.2
NC(=O)c1cc(-c2cc(N)cc3[nH]ncc23)cc2cn[nH]c12	15.7	9.1
NC(=O)c1cc(-c2cccc3[nH]ncc23)cc2cn[nH]c12	22.5	1.2
NC(=O)c1cc(-c2cc(N)cc3[nH]ncc23)cc2c(C#CCO)n[nH]c12	38.1	-0.4
NC(=O)c1cc(-c2cc(N)cc3[nH]ncc23)cc2c(C#CCCO)n[nH]c12	48.1	2.5
NC(=O)c1cc(-c2cccc3[nH]ncc23)cc2c(C#CCCO)n[nH]c12	32.3	6.7
